Test [1] has as its system Pseudomonas aeruginosa Pa57388D. Briefly: FIC index of combinations with conventional antibiotics, strain Pa57388D. The class given is cell-based. Particulars: strain Pa57388D (Col^R, Gent^R); for FICI (Additive) Tob / FICI (Synergy) Tob: in combination with Tobramycin. How it is done:
(§1) The bacterial inoculum was established by the dilution method from actively-growing cultures in Mueller-Hinton (MH) broth, standardized with 0.5 McFarland turbidity standard as described in the CLSI method M26-A.
(§2) Both the bacterial inoculum and the antimicrobial agents, including the compounds structurally related to cysteamine, were added simultaneously to the plates. The plates were incubated at 37° C. for 24 h and the optical density was read at 625 nm on a microtitre plate reader (BioTek Powerwave XS, Winooski, USA). The MIC was obtained as the lowest concentration of antimicrobial showing total inhibition of bacterial growth.
(§3) The FIC corresponds to an interaction coefficient indicating whether the combination of antimicrobial agents is synergistic, additive, antagonist or neutral. The FIC is determined by comparing the activity of an agent in combination (MIC of agent A+agent B) with the activity of the agent alone (MIC of agent A or agent B) as follow (Singh et al., 2000): FIC=MICA[combination]/MICA[alone]+MICB[combination]/MICB[alone]
(§4) Additive combinations of two antimicrobial agents are indicated by a FIC index of 1, whereas a FIC index<1 indicates synergistic combinations. Neutral combinations would give a FIC between 1 and 4, a FIC index higher than 4 indicates antagonist effects between the two antimicrobial agents.
(§5) The FIC was also calculated to assess the interaction of two antimicrobial agents in combination against bacterial samples.

In test [2] the test system is Pseudomonas aeruginosa Pa01. Briefly: FIC index of combinations with conventional antibiotics, strain Pa01. The class given is cell-based. Particulars: strain Pa01 (Col^R); for FICI (Additive) Cip: in combination with Ciprofloxacin. On the procedure:
as §1, §2, §3, §4, §5

Test [3] concerns Pseudomonas aeruginosa Pa14. Briefly: FIC index of combinations with conventional antibiotics, strain Pa14. It counts as cell-based. Particulars: strain Pa14 (Col^R); for FICI (Additive) Col: in combination with Colistin; for FICI (Additive) Gent: in combination with Gentamicin; for FICI (Additive) Tob: in combination with Tobramycin. On the procedure:
as §1, §2, §3, §4, §5

Test [4] has as its system Pseudomonas aeruginosa Pa57388A. The test can be described thus: FIC index of combinations with conventional antibiotics, strain Pa57388A. The class given is cell-based. Particulars: strain Pa57388A (Col^R); for FICI (Additive) Gent: in combination with Gentamicin; for FICI (Additive) Tob: in combination with Tobramycin. How it is done: as §1, §2, §3, §4, §5
The subject of test [5] is Pseudomonas aeruginosa Pa058. The test can be described thus: FIC index of combinations with conventional antibiotics, strain Pa058. Particulars: strain Pa058 (Col^R, Cip^R Tob^R); for FICI (Additive) Cip: in combination with Ciprofloxacin; for FICI (Additive) Gent: in combination with Gentamicin. The class given is cell-based. How it is done: as §1, §2, §3, §4, §5
For test [6], the system named is Pseudomonas aeruginosa Pa14. Briefly: MIC determination, strain Pa14. The class given is cell-based. Particulars: for MIC: read-out: MIC100. How it is done: as §1
(§6) Both the bacterial inoculum and the antimicrobial agents, including the compounds structurally related to cysteamine, were added simultaneously to the plates. The plates were incubated at 37° C. for 24 h and the optical density was read at 625 nm on a microtitre plate reader (BioTek Powerwave XS, Winooski, USA). […]
(§7) A number of compounds related in chemical structure to cysteamine were examined for antimicrobial activity; cystamine (dihydrochloride salt), taurine and 2,3-dimercaptosuccinic acid. Other compounds chemically related to cysteamine are known, but are toxic, and are therefore of no utility in a drug of this nature.

The subject of test [7] is Pseudomonas aeruginosa NH57388A. Briefly: MIC determination, strain NH57388A. The class given is cell-based. Particulars: for MIC: read-out: MIC100. On the procedure: as §1, §6, §7
The subject of test [8] is Pseudomonas aeruginosa Pa058. The test can be described thus: MIC determination, strain Pa058. The class given is cell-based. Particulars: for MIC: read-out: MIC100. On the procedure: as §1, §6, §7
Test [9] concerns Pseudomonas aeruginosa Pa01. Briefly: MIC determination, strain Pa01. It counts as cell-based. Particulars: for MIC: read-out: MIC100. On the procedure: as §1, §6, §7
The test system of test [10] is P. aeruginosa ATCC 27853. Briefly: MIC and FIC of antibiotics with cysteamine, environments mimicking a CF lung. The class given is cell-based, Pseudomonas aeruginosa. How it is done: as §2, §3
The range of concentrations of antimicrobial agents was 0-10 μg/ml.

Setting [11] is: in combination with Ciprofloxacin.
[12] abbreviates: in combination with Ciprofloxacin, hydrochloride.
Setting [13] is: in combination with Colistin, hydrochloride.
Setting [14] is: in combination with Gentamicin, hydrochloride.
Setting [15] is: in combination with Tobramycin, hydrochloride.

Converted amounts (≈) assume the structure as drawn. “And” between values parts separate entries of the source, which are not always exact repeats. Equal values may be shown once. Where a name gives a salt, the structure may show the parent alone.

`CC(=O)N[C@@H](CS)C(=O)O` [N-Acetyl Cysteine (NAC), N-Acetyl cysteine, reference compound]: the “FICI (Additive) Cip” value is 0.53 and 0.75 in [1] (setting [11]); 0.56 and 0.75 in [2]; 0.56 and 0.75 in test [3] (setting [11]); 0.63 and 0.5 and 0.56 in test [4] (setting [11]); 0.56 and 0.75 in test [5]. The “FICI (Additive) Col” value in test [1] (in combination with Colistin) is 0.56 and 0.75 and 0.53 and 0.5 and 0.51; in [3], 0.5 and 0.75; in [4] (in combination with Colistin), 0.56 and 0.75 and 0.52; in test [5] (in combination with Colistin), 0.53. In addition, the “FICI (Additive) Tob” value was 0.56 and 0.63 in test [1]; 0.53 and 0.52 and 0.5 and 0.56 in [2] (in combination with Tobramycin); 0.63 and 0.5 and 0.75 in test [3]; 0.53 in test [4]; 0.75 and 0.53 and 0.51 in [5] (in combination with Tobramycin). In test [1], the “FICI (Synergy) Tob” value was 0.25 and 0.31. For the same compound, the “FICI (Additive) Gent” value in [3] was 0.51 and 0.52; in test [4] it was 0.63; in test [5], 0.53.
As for `NCCS(=O)(=O)O` [Taurine, taurine], the MIC50 in [6], in test [7], in test [8] and in [9] was above 2000 µg/mL throughout. The MIC90 in [6], in test [7], in test [8] and in [9] was above 2000 µg/mL throughout. The MIC in test [6], in [7], in [8] and in [9] was above 2000 µg/mL each time.
For `NCCS` [Cysteamine Hydrochloride (Cyst HCl), Cysteamine hydrochloride], the “FICI (Additive) Cip” value in test [1] (setting [12]) was 0.56 and 0.53; in [2] (hydrochloride), 0.75 and 0.52 and 0.56; in test [3] (setting [12]), 0.56 and 0.63 and 0.5; in test [4] (setting [12]), 0.53 and 0.5 and 0.63 and 0.56 and 0.75; in test [5] (hydrochloride), 0.53 and 0.63 and 0.75 and 0.56. In addition, the “FICI (Synergy) Cip” value in [1] (setting [12]) was 0.31 and 0.38; in [3] (setting [12]), 0.31 and 0.37 and 0.38; in test [4] (setting [12]) it was 0.19 and 0.25. Also, the “FICI (Additive) Col” value was 0.52 and 0.53 in test [1] (setting [13]); 0.5 in test [2] (setting [13]); 0.51 and 0.5 and 0.53 and 0.52 in [3] (hydrochloride); 0.53 and 0.52 and 0.5 in [4] (setting [13]); 0.52 and 0.75 and 0.56 and 0.5 in [5] (setting [13]). Also, the “FICI (Synergy) Col” value was 0.19 and 0.28 and 0.25 and 0.31 in [1] (setting [13]); 0.25 and 0.31 and 0.19 and 0.26 in test [4] (setting [13]); 0.38 in test [5] (setting [13]). The “FICI (Additive) Gent” value in test [1] (setting [14]) is 0.53 and 0.52; in [2] (setting [14]) it was 0.75 and 0.5; in test [3] (hydrochloride) it was 0.5 and 0.63 and 0.56; in test [4] (hydrochloride), 0.63; in test [5] (hydrochloride), 0.75. The “FICI (Additive) Tob” value is 0.51 and 0.5 in test [1] (hydrochloride); 0.51 and 0.53 and 0.5 in [2] (setting [15]); 0.63 and 0.75 and 0.5 in test [3] (hydrochloride); 0.63 and 0.75 in [4] (hydrochloride). The “FICI (Synergy) Tob” value in [1] (hydrochloride) was 0.25 and 0.31 and 0.19; in test [2] (setting [15]), 0.25 and 0.31 and 0.38 and 0.28 and 0.19.
`O=C(O)C(S)C(S)C(=O)O` (centres unmarked) [2,3-Dimercaptosuccinic Acid, 2,3-dimercaptosuccinic acid]: the MIC50 in test [6] lay within 1000 to 2000 µg/mL (≈ 5.49 to 11 mM); in test [7], 500 to 2000 µg/mL (≈ 2.74 to 11 mM); in test [8] it was 500 to 2000 µg/mL (≈ 2.74 to 11 mM); in test [9] it was 1000 to 2000 µg/mL (≈ 5.49 to 11 mM). Also, the MIC90 in test [6] is 1000 to 2000 µg/mL (≈ 5.49 to 11 mM); in test [7] it was 1000 to 2000 µg/mL (≈ 5.49 to 11 mM); in test [8] it was 1000 to 2000 µg/mL (≈ 5.49 to 11 mM); in test [9] it was above 2000 µg/mL. Moreover, the MIC in test [6] is above 2000 µg/mL; in [7] it was 2000 µg/mL (≈ 11 mM); in test [8], 2000 µg/mL (≈ 11 mM); in test [9], above 2000 µg/mL.
Regarding `O=C(O)c1cn(C2CC2)c2cc(N3CCNCC3)c(F)cc2c1=O` [Ciprofloxacin], in test [10] (environments mimicking those found in a CF lung), the “MIC upon administration with cysteamine compared to administration alone” value is on record as “greatly reduced”. Also, the “antimicrobial effect in combination with cysteamine” value in [10] (mucolytic environment) is “maintained”.
Turning to `NCCSSCCN` [Cystamine, cystamine], the MIC50 was 125 to 250 µg/mL (≈ 0.821 to 1.64 mM) in test [6], 500 to 1000 µg/mL (≈ 3.28 to 6.57 mM) in test [7], 250 to 500 µg/mL (≈ 1.64 to 3.28 mM) in test [8] and 250 to 1000 µg/mL (≈ 1.64 to 6.57 mM) in [9]. Moreover, the MIC90 in [6], in test [7], in [8] and in [9] was 1000 to 2000 µg/mL (≈ 6.57 to 13.1 mM) throughout. Also, the MIC in [6], in [7], in [8] and in test [9] was 2000 µg/mL (≈ 13.1 mM) throughout.

In general, MIC50 refers to the lowest concentration that inhibits either 50% of growth or 50% of the strains tested, depending on the study. A low value points to higher susceptibility. By MIC90 is commonly meant the lowest concentration that inhibits either 90% of growth or 90% of the strains tested, depending on the study. A higher MIC90 goes with weaker potency.

The values above are taken from patent publication US11020414B2, “Antimicrobial compositions with cysteamine” (priority 2010, dated 2021).
